Holding throughout (format): cell-based
For test [1], the target named is T-type calcium channel alpha 1G subunit (Mus musculus) (UniProt Q27YN9). The experiment in a line: (§1) Antagonist activity at mouse Cav3.1 expressed in HEK293T cells assessed as inhibition of current amplitude at holding potential of -100 mV by whole cell electrophysiological method.
In test [2] the target is T1, T-type calcium channel alpha 1G subunit (Mus musculus, UniProt Q27YN9). The test is described as §1.
Test [3] deals with T-type calcium channel alpha 1G subunit (Mus musculus) (UniProt Q27YN9). Put plainly: Antagonist activity at mouse Cav3.1 expressed in HEK293T cells assessed as inhibition of current amplitude at 10 uM at holding potential of -100 mV incubated prior to compound washout by whole cell electrophysiological method.
Test [4] shares this target. Put plainly: Antagonist activity at mouse Cav3.1 expressed in HEK293T cells assessed as inhibition of current amplitude at 2 uM at holding potential of -100 mV in presence of hypatone-A by whole cell electrophysiological method.
The species named for test [5] is Mus musculus. Put plainly: Agonist activity at mouse Cav3.1 R1715H mutant expressed in HEK293T cells assessed as shift in voltage dependence of activation at 10 uM at holding potential of -100 mV by whole cell electrophysiological method.
The species named for test [6] is Mus musculus. Put plainly: Agonist activity at mouse Cav3.1 R1715H mutant expressed in HEK293T cells assessed as change in half-maximal activation potential at 10 uM at holding potential of -100 mV by whole cell electrophysiological method (reference value: -38 +/- 4.3 mV).
Test [7] has as its target T-type calcium channel alpha 1G subunit (Mus musculus) (UniProt Q27YN9). The experiment in a line: Agonist activity at mouse Cav3.1 expressed in HEK293T cells assessed as half-maximal activation potential at 5 uM at holding potential of -100 mV by whole cell electrophysiological method (reference value: -44 +/- 2.8 mV).
The target is the same in test [8]. Put plainly: Agonist activity at mouse Cav3.1 expressed in HEK293T cells assessed as change in slope factor at 5 uM at holding potential of -100 mV by whole cell electrophysiological method.
Test [9] is filed under the species Mus musculus. The experiment in a line: Agonist activity at mouse Cav3.1 R1715H mutant expressed in HEK293T cells assessed as normalized window current at 10 uM at holding potential of -100 mV by whole cell electrophysiological method.
Test [10] concerns the target T-type calcium channel alpha 1G subunit (Mus musculus) (UniProt Q27YN9). The experiment in a line: Agonist activity at mouse Cav3.1 expressed in HEK293T cells assessed as increase in current amplitude at 5 uM at holding potential of -100 mV measured after 12 to 14 secs by whole cell electrophysiological method.
Test [11] has the same target. The experiment in a line: Agonist activity at mouse Cav3.1 expressed in HEK293T cells assessed as increase in current amplitude at 3 to 30 uM at holding potential of -100 mV incubated prior to compound washout by whole cell electrophysiological method.
The target is the same in test [12]. Put plainly: Agonist activity at mouse Cav3.1 expressed in HEK293T cells assessed as increase in current amplitude at 300 uM at holding potential of -100 mV measured up to 150 millisecs in presence of LVGCC blocker Ni2+ by whole cell electrophysiological method.
The target in test [13] is T1, T-type calcium channel alpha 1G subunit. The experiment in a line: Agonist activity at mouse Cav3.1 expressed in HEK293T cells assessed as increase in current amplitude at holding potential of -100 mV by whole cell electrophysiological method.
The species named for test [14] is Mus musculus. Put plainly: Antagonist activity at mouse Cav3.1 R1715H mutant expressed in HEK293T cells assessed as change in time constant of inactivation at 10 uM at holding potential of -100 mV by whole cell electrophysiological method.
Test [15] is filed under the species Mus musculus. Put plainly: Agonist activity at mouse Cav3.1 R1715H mutant expressed in HEK293T cells assessed as change in time constant of activation at 10 uM at holding potential of -100 mV by whole cell electrophysiological method.
Test [16] is filed under the species Mus musculus. Put plainly: Antagonist activity at mouse Cav3.1 R1715H mutant expressed in HEK293T cells assessed as depolarization of action potential at 10 uM at holding potential of -100 mV by whole cell electrophysiological method.
Test [17] is filed under the species Mus musculus. Put plainly: Agonist activity at mouse Cav3.1 R1715H mutant expressed in HEK293T cells assessed as change in slope factor at 10 uM at holding potential of -100 mV by whole cell electrophysiological method.
Test [18] is described as follows: Agonist activity at mouse Cav3.1 R1715H mutant expressed in HEK293T cells assessed as increase in current amplitude at holding potential of -100 mV by whole cell electrophysiological method. The note with it: HEK-293T.
The target in test [19] is T-type calcium channel alpha 1G subunit (Mus musculus) (UniProt Q27YN9). The experiment in a line: Agonist activity at mouse Cav3.1 expressed in HEK293T cells assessed as increase in window current at 5 uM at holding potential of -100 mV by whole cell electrophysiological method.
For test [20] the target is unchanged. Put plainly: Agonist activity at mouse Cav3.1 expressed in HEK293T cells assessed as change in time constant of activation at 5 uM at holding potential of -100 mV by whole cell electrophysiological method.
Test [21] shares this target. The experiment in a line: Antagonist activity at mouse Cav3.1 expressed in HEK293T cells assessed as change in time constant of inactivation at 5 uM at holding potential of -100 mV by whole cell electrophysiological method.
The target is the same in test [22]. Put plainly: Antagonist activity at mouse Cav3.1 expressed in HEK293T cells assessed as increase in half-maximal activation potential at 5 uM at holding potential of -100 mV incubated prior to compound washout by whole cell electrophysiological method.
The target is the same in test [23]. The experiment in a line: Agonist activity at mouse Cav3.1 expressed in HEK293T cells assessed as decrease in half-maximal activation potential at 5 uM at holding potential of -100 mV incubated prior to compound washout by whole cell electrophysiological method.
Test [24] shares this target. The experiment in a line: Antagonist activity at mouse Cav3.1 expressed in HEK293T cells assessed as half-maximal inactivation potential at 5 uM at holding potential of -100 mV by whole cell electrophysiological method (reference value: -70.8 +/- 3 mV).
Test [25] has the same target. Put plainly: Antagonist activity at mouse Cav3.1 expressed in HEK293T cells assessed as change in slope factor at 5 uM at holding potential of -100 mV by whole cell electrophysiological method.
Test [26] is filed under the species Mus musculus. The experiment in a line: Agonist activity at mouse Cav3.1 R1715H mutant expressed in HEK293T cells assessed as increase in 200 ms ramp from -100 to -40 mV after 100 ms hyperpolarization of -100 mV evoked peak of low threshold Ca2+ spike at 10 uM at -60 mV holding potential by whole cell electrophysiological method relative to control.
In test [27] the target is T-type calcium channel alpha 1G subunit (Mus musculus) (UniProt Q27YN9). The experiment in a line: Agonist activity at mouse Cav3.1 expressed in HEK293T cells assessed as increase in current amplitude at 5 uM at holding potential of -100 mV in presence of hypatone-B by whole cell electrophysiological method.
Test [28] has as its target Voltage-dependent T-type calcium channel subunit alpha-1G (Homo sapiens, UniProt O43497). The experiment in a line: Agonist activity at Cav3.1 (unknown origin) expressed in HEK293T cells assessed as increase in current amplitude at holding potential of -100 mV by whole cell patch-clamp electrophysiological method.

This note sets out measurements from ChEMBL document CHEMBL4354847, “Congenetic Hybrids Derived from Dearomatized Isoprenylated Acylphloroglucinol with Opposite Effects on Cav3.1 Low Voltage-Gated Ca2+ Channel” (J Med Chem, 2020).

Calls of active or inactive are those of the source.

By IC50 is commonly meant the concentration needed to halve the response being measured. A word on the EC50: it is the concentration giving half of the maximal effect.

T1 sequence (Q27YN9 whole entry): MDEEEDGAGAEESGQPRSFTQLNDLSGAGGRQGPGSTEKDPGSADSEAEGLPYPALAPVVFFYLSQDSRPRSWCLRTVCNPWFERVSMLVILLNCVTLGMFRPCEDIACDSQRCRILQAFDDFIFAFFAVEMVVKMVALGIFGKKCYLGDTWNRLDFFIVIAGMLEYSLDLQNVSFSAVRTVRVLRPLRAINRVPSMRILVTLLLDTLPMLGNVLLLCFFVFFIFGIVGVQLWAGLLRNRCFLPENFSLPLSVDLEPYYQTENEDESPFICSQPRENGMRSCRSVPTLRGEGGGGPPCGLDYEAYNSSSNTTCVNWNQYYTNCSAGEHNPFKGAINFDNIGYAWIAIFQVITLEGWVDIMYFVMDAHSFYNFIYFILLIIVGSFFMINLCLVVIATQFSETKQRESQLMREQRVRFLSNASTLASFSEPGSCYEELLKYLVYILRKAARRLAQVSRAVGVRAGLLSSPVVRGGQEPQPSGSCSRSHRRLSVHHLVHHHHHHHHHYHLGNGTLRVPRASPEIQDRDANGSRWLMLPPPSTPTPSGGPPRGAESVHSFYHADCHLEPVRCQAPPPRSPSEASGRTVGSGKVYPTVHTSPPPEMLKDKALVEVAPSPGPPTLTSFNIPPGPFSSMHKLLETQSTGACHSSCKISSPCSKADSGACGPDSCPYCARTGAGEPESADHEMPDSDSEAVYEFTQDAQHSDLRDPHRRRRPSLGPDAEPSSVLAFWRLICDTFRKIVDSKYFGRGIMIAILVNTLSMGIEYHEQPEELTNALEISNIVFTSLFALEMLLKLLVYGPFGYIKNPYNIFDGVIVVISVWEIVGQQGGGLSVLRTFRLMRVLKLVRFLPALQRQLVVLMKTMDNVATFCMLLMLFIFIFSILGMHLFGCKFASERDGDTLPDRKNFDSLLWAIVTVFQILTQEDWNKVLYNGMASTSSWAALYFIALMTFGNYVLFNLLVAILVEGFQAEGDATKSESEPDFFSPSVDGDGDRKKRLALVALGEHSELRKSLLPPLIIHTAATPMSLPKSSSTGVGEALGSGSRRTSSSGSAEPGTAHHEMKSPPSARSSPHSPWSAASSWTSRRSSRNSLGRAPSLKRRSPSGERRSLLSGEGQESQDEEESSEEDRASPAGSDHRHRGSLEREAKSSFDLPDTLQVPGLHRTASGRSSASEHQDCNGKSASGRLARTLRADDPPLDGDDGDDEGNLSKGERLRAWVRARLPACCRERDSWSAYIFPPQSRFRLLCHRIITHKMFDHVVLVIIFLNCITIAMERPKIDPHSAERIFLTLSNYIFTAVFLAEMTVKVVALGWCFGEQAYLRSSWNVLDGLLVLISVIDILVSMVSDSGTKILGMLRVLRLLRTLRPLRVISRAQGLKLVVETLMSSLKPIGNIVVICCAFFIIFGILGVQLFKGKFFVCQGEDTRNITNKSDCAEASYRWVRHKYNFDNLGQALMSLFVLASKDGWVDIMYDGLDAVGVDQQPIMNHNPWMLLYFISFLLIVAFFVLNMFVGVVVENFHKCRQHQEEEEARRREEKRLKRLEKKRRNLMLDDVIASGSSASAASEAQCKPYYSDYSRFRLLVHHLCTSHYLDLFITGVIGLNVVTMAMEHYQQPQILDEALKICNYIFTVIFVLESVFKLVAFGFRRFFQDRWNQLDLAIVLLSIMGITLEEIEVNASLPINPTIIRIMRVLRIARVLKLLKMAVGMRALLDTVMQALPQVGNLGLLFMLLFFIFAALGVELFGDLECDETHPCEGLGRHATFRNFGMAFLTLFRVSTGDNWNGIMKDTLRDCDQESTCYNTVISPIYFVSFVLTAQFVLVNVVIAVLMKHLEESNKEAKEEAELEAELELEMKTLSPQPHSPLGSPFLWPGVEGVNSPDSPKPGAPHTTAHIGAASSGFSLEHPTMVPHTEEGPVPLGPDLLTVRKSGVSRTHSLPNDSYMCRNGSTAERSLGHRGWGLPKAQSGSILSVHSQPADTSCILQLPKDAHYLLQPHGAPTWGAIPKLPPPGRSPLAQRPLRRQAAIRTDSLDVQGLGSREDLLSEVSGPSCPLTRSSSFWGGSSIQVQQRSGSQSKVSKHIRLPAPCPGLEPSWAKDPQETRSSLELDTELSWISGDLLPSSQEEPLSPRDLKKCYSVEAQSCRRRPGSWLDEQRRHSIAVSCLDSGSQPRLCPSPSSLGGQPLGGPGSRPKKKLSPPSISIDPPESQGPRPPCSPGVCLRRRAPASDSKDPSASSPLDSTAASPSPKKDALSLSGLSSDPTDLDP
T-type calcium channel alpha 1G subunit (Mus musculus), sequence (Q27YN9 as listed by the source): as the sequence (Q27YN9 whole entry) above
Voltage-dependent T-type calcium channel subunit alpha-1G, sequence (O43497 whole entry): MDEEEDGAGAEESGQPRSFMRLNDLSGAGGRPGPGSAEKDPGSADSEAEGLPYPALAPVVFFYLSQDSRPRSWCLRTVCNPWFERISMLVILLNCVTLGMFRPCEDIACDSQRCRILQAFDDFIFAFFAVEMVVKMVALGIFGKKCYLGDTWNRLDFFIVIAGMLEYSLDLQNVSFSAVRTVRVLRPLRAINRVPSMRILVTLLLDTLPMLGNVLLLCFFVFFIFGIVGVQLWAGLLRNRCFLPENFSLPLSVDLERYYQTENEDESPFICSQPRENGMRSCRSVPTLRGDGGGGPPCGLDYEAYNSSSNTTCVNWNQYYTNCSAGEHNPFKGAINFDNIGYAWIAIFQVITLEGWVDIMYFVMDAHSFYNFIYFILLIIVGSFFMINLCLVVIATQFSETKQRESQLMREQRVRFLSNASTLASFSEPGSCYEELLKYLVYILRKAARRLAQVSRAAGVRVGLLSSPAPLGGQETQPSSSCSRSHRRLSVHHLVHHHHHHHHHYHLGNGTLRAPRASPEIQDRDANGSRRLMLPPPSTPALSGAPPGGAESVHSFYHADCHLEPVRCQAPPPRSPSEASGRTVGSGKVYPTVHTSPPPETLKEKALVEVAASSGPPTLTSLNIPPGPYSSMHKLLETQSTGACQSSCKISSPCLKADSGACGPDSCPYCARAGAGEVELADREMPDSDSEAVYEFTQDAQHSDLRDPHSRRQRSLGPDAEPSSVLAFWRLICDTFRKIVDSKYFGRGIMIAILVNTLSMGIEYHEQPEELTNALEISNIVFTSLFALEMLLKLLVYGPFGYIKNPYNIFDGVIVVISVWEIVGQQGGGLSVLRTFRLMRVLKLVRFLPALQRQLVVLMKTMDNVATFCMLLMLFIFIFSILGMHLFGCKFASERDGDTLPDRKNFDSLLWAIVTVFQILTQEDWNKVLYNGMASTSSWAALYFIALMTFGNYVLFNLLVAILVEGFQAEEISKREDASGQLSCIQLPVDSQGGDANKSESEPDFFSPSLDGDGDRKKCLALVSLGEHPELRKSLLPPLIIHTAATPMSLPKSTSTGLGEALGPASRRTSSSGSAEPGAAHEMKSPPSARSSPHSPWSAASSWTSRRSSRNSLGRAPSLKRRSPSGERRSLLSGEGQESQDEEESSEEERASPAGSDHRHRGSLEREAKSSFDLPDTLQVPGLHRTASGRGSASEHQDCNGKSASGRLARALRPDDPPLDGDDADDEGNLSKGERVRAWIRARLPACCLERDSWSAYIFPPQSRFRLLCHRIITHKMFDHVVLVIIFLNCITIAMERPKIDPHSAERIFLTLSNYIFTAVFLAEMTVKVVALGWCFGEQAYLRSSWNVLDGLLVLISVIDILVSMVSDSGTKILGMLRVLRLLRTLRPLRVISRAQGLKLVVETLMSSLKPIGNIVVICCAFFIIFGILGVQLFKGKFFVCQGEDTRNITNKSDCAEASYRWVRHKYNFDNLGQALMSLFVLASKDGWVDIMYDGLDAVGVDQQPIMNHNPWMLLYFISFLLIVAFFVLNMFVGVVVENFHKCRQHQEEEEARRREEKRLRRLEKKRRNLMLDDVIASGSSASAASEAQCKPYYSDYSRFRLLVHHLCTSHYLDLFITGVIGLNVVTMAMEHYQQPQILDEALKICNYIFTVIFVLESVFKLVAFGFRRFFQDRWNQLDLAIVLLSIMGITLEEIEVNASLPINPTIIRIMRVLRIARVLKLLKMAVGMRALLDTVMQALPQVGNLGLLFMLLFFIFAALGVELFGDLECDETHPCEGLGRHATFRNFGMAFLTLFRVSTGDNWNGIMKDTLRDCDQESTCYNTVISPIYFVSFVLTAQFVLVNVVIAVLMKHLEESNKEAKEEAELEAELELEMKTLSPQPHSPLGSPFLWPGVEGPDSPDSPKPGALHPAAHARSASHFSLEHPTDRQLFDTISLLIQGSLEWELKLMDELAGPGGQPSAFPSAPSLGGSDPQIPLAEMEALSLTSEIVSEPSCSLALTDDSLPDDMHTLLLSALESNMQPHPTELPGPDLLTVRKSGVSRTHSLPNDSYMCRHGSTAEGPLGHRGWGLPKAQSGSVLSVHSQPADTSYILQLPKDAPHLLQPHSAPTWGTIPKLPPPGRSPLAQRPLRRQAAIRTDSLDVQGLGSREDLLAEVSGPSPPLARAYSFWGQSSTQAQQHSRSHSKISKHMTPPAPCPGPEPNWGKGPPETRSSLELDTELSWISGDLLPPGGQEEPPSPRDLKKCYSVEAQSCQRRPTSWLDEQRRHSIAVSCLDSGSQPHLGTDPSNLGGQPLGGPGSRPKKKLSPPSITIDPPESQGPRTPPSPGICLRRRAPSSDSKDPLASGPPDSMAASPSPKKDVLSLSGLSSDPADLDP

`C=C(C)[C@H]1CC[C@@](C)(O)[C@@H](C2=C(O)C(CC=C(C)C)(CC=C(C)C)C(=O)C(C(=O)C(C)C)=C2O)C1`: in test [1], the inhibition entry is “Dose-dependent effect”. For the same compound, in [2], the IC50 was 3.5 µM. For the same compound, in test [3], the inhibition entry was “Active”.
As for `C=C(C)[C@H]1CC[C@@](C)(O)[C@@H](C2=C(O)C(CC=C(C)C)(CC=C(C)C)C(=O)C(C(=O)c3ccccc3)=C2O)C1`, the inhibition result in [1] is “Dose-dependent effect”. The IC50 in [2] amounted to 2.3 µM. Further, the inhibition result in test [3] and in test [4] was “Active” throughout.
With `CC(C)=CCC1(CC=C(C)C)C(=O)C(C(=O)c2ccccc2)=C2O[C@]3(C)CC[C@H]4C[C@@H]3[C@]2(C1=O)C4(C)C`, the outcome in [5], in test [8], in test [11], in [12], in test [14] and in test [15] was inactive. The result in test [16], in test [17], in [20], in [21], in test [22] and in test [23] was inactive. Also, the outcome in [25] was inactive. Further, the V1/2 in test [6] is -43.8 mV; in test [7], -47.6 mV; in [24], -66.5 mV. Also, the result in test [9], in [10], in test [19] and in [27] was Active. Further, the half-maximal effective concentration (EC50) was found to be 3.8 µM in [13] and 9.6 µM in test [18]. For the same compound, the Activity in [26] is 26.7%.
Consider `CC(C)C1=C/C(=C2\C(=O)C=C3C(C)(C)CCC[C@@]32C)OC1=O`, for which the half-maximal effective concentration (EC50) in [28] came out at 12.5 µM.
As to `C=C(C)[C@H]1CC[C@@](C)(O)[C@@H](C2=C(O)C(CC=C(C)C)(CC=C(C)C)C(=O)C(C(=O)C(C)CC)=C2O)C1` (some centres undefined), the inhibition entry in test [1] is “Dose-dependent effect”. The IC50 in [2] was 0.19 µM. For the same compound, the inhibition result in test [3] is “Active”.
